According to patent publication US7713994B2 (Wyeth LLC, priority 2005, dated 2010):

Tests used:
[1] = target: T1, cyclin D1/cdk 4 enzyme (Homo sapiens, UniProt P11802); assay: CDK4 ELISA kinase assay (phospho-Rb ser 795 detection); format: biochemical; conditions: In Vitro Enzyme Assay, cyclin D1/cdk 4, read-out: CDK4 IC50
T1 construct: made in house; host or cells: Sf9 insect cells, recombinant baculovirus
Procedure, shortened: (§1)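 Screening was done at 10 ug/ml compound. Each partially purified cyclin/CDK complex, produced in baculovirus-infected Sf9 cells, phosphorylated a coated GST-Rb C-terminal fragment with 200 μM ATP, and Ser795 phosphorylation was quantified by HRP-ELISA at 450 nm.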

[2] = test system: HCT-116; assay: Cytotoxicity assay (SRB), HCT-116; format: cell-based; conditions: Homo sapiens, HCT-116, 72 h, HCT116 cells, 3 days, SRB; read-out: In Vitro Cellular Activity IC50 HCT116
Procedure, shortened: (§2)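 BT474 (12000 cells/well) was treated for 6 days, whereas HCT-116 (4000), LoVo (6000) and MCF-7 (6000) were treated for 3 days, all in RPMI 1640 containing 5% FBS. Surviving-cell percentage came from SRB dye binding measured at 540 nm.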

[3] = target: T2, cyclin B/CDK1 enzyme (Homo sapiens, UniProt P06493); assay: CDK1 ELISA kinase assay (phospho-Rb ser 795 detection); format: biochemical; conditions: In Vitro Enzyme Assay, cyclin B/CDK1, read-out: CDK1 IC50
T2 construct: purchased New England BioLabs; host or cells: Sf9 insect cells, recombinant baculovirus
T2 sequence (P06493 whole entry): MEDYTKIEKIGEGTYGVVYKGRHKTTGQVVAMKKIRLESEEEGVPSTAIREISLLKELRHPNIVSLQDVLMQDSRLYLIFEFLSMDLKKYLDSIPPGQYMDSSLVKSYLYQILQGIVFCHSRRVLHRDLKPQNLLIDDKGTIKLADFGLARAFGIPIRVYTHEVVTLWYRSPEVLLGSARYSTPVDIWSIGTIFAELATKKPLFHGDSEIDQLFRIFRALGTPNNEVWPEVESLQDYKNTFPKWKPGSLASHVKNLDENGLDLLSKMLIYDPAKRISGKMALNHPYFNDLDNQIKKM
T2 sequence (P14635 whole entry partner): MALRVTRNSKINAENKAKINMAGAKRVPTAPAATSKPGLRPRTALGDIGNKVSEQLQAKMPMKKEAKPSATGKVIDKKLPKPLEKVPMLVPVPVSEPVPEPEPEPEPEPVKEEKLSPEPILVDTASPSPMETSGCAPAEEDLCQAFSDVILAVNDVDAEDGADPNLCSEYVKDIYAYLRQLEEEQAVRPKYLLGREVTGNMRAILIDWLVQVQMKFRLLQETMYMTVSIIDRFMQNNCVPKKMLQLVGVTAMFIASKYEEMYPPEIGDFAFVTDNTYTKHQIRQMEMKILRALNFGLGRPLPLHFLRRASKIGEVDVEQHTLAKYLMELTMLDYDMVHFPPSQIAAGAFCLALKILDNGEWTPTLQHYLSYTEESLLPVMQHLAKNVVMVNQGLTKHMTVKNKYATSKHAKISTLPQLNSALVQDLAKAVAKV
Procedure, shortened: as §1

[4] = test system: LoVo; assay: Cytotoxicity assay (SRB), LoVo; format: cell-based; conditions: Homo sapiens, LoVo, 72 h, LoVo cells, 3 days, SRB; read-out: In Vitro Cellular Activity IC50 LOVO
Procedure, shortened: as §2

[5] = target: T3, cyclin E/CDK2 enzyme (Homo sapiens, UniProt P24941); assay: CDK2 ELISA kinase assay (phospho-Rb ser 795 detection); format: biochemical; conditions: In Vitro Enzyme Assay, cyclin E/CDK2, read-out: CDK2 IC50
T3 construct: made in house; host or cells: Sf9 insect cells, recombinant baculovirus
Procedure, shortened: as §1

[6] = test system: BT474; assay: Cytotoxicity assay (SRB), BT474; format: cell-based; conditions: Homo sapiens, BT-474, 144 h, BT474 cells, 6 days, SRB; read-out: In Vitro Cellular Activity IC50 BT474
Procedure, shortened: as §2

[7] = test system: MCF-7; assay: Cytotoxicity assay (SRB), MCF-7; format: cell-based; conditions: Homo sapiens, MCF7, 72 h, MCF-7 cells, 3 days, SRB; read-out: In Vitro Cellular Activity IC50 MCF-7
Procedure, shortened: as §2

T1 sequence (P11802 whole entry, species assumed): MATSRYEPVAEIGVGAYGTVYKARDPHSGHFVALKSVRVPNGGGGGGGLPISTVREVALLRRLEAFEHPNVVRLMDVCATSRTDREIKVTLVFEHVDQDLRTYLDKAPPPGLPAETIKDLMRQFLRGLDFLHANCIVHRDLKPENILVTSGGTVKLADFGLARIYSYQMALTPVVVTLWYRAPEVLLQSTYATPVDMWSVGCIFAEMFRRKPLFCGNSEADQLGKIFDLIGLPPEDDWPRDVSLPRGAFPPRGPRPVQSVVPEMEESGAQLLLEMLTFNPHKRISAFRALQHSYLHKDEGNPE
T1 sequence (P24385 whole entry partner, species assumed): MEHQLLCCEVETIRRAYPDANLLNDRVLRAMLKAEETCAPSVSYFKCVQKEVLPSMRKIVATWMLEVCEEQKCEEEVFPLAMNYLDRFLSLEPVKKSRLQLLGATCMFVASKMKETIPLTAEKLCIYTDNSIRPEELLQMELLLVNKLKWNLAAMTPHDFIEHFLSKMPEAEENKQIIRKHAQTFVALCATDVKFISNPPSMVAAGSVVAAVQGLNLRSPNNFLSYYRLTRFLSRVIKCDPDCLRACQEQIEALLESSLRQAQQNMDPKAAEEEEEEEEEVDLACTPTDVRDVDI

IC50 [1] [µM]	IC50 [3] [µM]	IC50 [5] [µM]	Compound	IC50 [2] [µM]	IC50 [4] [µM]	IC50 [6] [µM]	IC50 [7] [µM]
0.64	> 50	> 50	CN1CCN(c2ccc(NC=C3C(=O)NC(=O)c4ccc(-c5ccc[nH]5)cc43)cc2)CC1 [Example 672, 4-{[4-(4-Methyl-piperazin-1-yl)-phenylamino]-methylene}-6-(1H-pyrrol-2-yl)-4H-isoquinoline-1,3-dione]	3.4	2.9	7.9	3.2
1	> 50	> 50	CN1CCN(c2ccc(NC=C3C(=O)NC(=O)c4ccc(-c5cc[nH]c5)cc43)cc2)CC1 [Example 673, 4-{[4-(4-Methyl-piperazin-1-yl)-phenylamino]-methylene}-6-(1H-pyrrol-3-yl)-4H-isoquinoline-1,3-dione]	3	5	8.5	5.8
1.77	> 50	> 50	CN1CCN(c2ccc(NC=C3C(=O)NC(=O)c4ccc(C=Cc5ccccn5)cc43)cc2)CC1 [Example 675, 4-{[4-(4-Methyl-piperazin-1-yl)-phenylamino]-methylene}-6-(2-pyridin-2-yl-vinyl)-4H-isoquinoline-1,3-dione]	2.3	6.8	7.7	7.2
0.92	15.1	15.8	CN1CCN(c2ccc(NC=C3C(=O)NC(=O)c4ccc(C=Cc5ccncc5)cc43)cc2)CC1 [Example 676, 4-{[4-(4-Methyl-piperazin-1-yl)-phenylamino]-methylene}-6-(2-pyridin-4-yl-vinyl)-4H-isoquinoline-1,3-dione]	2.5	4.6	7.7	7.3
1.16	14.4	> 50	CN1CCN(c2ccc(NC=C3C(=O)NC(=O)c4ccc(C=Cc5cnccn5)cc43)cc2)CC1 [Example 678, 4-{[4-(4-Methyl-piperazin-1-yl)-phenylamino]-methylene}-6-(2-pyrazin-2-yl-vinyl)-4H-isoquinoline-1,3-dione]	3.5	6.1	9.1	10.5
0.23	> 50	> 50	CN1CCN(c2ccc(NC=C3C(=O)NC(=O)c4ccc(C=Cn5ccnc5)cc43)cc2)CC1 [Example 680, 6-(2-Imidazol-1-yl-vinyl)-4-{[4-(4-methyl-piperazin-1-yl)-phenylamino]-methylene}-4H-isoquinoline-1,3-dione]	5.9	4.7	15.2	6.9
1.51	> 50	> 50	CN1CCN(c2ccc(NC=C3C(=O)NC(=O)c4ccc(-c5ccc(C(=O)O)cc5)cc43)cc2)CC1 [Example 685, 4-(4-{[4-(4-Methyl-piperazin-1-yl)-phenylamino]-methylene}-1,3-dioxo-1,2,3,4-tetrahydro-isoquinolin-6-yl)-benzoic acid]	18.4	25	36.9	22.1
0.26	21.1	> 50	CC(=O)c1ccc(-c2ccc3c(c2)C(=CNc2ccc(N4CCN(C)CC4)cc2)C(=O)NC3=O)cc1 [Example 688, 6-(4-Acetyl-phenyl)-4-{[4-(4-methyl-piperazin-1-yl)-phenylamino]-methylene}-4H-isoquinoline-1,3-dione]	2	4.6	3.3	5
0.28	> 50	> 50	CN1CCN(c2ccc(NC=C3C(=O)NC(=O)c4ccc(-c5ccc(C=CC(=O)O)cc5)cc43)cc2)CC1 [Example 698, 3-[4-(4-{[4-(4-Methyl-piperazin-1-yl)-phenylamino]-methylene}-1,3-dioxo-1,2,3,4-tetrahydro-isoquinolin-6-yl)-phenyl]-acrylic acid]	46.3	> 50	48.1	> 50
0.07	1	1.3	CN1CCN(c2ccc(NC=C3C(=O)NC(=O)c4ccc(C=Cc5ccc(S(N)(=O)=O)cc5)cc43)cc2)CC1 [Example 728, 4-[2-(4-{[4-(4-Methyl-piperazin-1-yl)-phenylamino]-methylene}-1,3-dioxo-1,2,3,4-tetrahydro-isoquinolin-6-yl)-vinyl]-benzenesulfonamide]	29.1	> 50	> 50	> 50
0.14	> 50	> 50	COc1ccc(CNC=C2C(=O)NC(=O)c3ccc(C=Cc4ccccn4)cc32)cc1O [Example 735, 4-[(3-Hydroxy-4-methoxy-benzylamino)-methylene]-6-(2-pyridin-2-yl-vinyl)-4H-isoquinoline-1,3-dione]	18.2	11.4	20.1	21.9

Further lines, the molecule ahead of its results:

Compound	IC50 [1] [µM]	IC50 [3] [µM]	IC50 [5] [µM]	IC50 [2] [µM]	IC50 [4] [µM]	IC50 [6] [µM]	IC50 [7] [µM]
COc1ccc(CNC=C2C(=O)NC(=O)c3ccc(C=Cn4ccnc4)cc32)cc1O [Example 734, 4-[(3-Hydroxy-4-methoxy-benzylamino)-methylene]-6-(2-imidazol-1-yl-vinyl)-4H-isoquinoline-1,3-dione]	< 0.005	20.2	5	11.9	2.5	9.9	6.7
CN(C)Cc1ccc(C=Cc2ccc3c(c2)C(=CNCc2ccc(O)c(O)c2)C(=O)NC3=O)cc1 [Example 736, 4-[(3,4-Dihydroxy-benzylamino)-methylene]-6-[2-(4-dimethylaminomethyl-phenyl)-vinyl]-4H-isoquinoline-1,3-dione]	0.84	> 50	21.1	20.5	11.5	39.9	> 50
NS(=O)(=O)c1ccc(CNC=C2C(=O)NC(=O)c3ccc(-c4ccc(F)cc4)cc32)cc1 [Example 738, 4-({[6-(4-Fluoro-phenyl)-1,3-dioxo-2,3-dihydro-1H-isoquinolin-4-ylidenemethyl]-amino}-methyl)-benzenesulfonamide]	0.45	32.4	32.4	18.8	39.1	47.1	15.8
NS(=O)(=O)c1ccc(CNC=C2C(=O)NC(=O)c3ccc(-c4cccc(F)c4)cc32)cc1 [Example 739, 4-({[6-(3-Fluoro-phenyl)-1,3-dioxo-2,3-dihydro-1H-isoquinolin-4-ylidenemethyl]-amino}-methyl)-benzenesulfonamide]	1.77	30.3	> 50	26.4	> 50	32.8	17.1
NS(=O)(=O)c1ccc(CNC=C2C(=O)NC(=O)c3ccc(-c4ccccc4F)cc32)cc1 [Example 740, 4-({[6-(2-Fluoro-phenyl)-1,3-dioxo-2,3-dihydro-1H-isoquinolin-4-ylidenemethyl]-amino}-methyl)-benzenesulfonamide]	1.81	13.5	3.7	7.7	10	9.7	8.3
NS(=O)(=O)c1ccc(CNC=C2C(=O)NC(=O)c3ccc(-c4ccc(Cl)cc4)cc32)cc1 [Example 749, 4-({[6-(4-Chloro-phenyl)-1,3-dioxo-2,3-dihydro-1H-isoquinolin-4-ylidenemethyl]-amino}-methyl)-benzenesulfonamide]	1.48	38.8	8	20.9	47.2	> 50	14.1
COc1ccc(-c2ccc3c(c2)C(=CNCc2ccc(O)c(O)c2)C(=O)NC3=O)cc1 [Example 764, 4-[(3,4-Dihydroxy-benzylamino)-methylene]-6-(4-methoxy-phenyl)-4H-isoquinoline-1,3-dione]	0.06	16.5	7.3	9.3	8.6	23.1	10.3
COc1cccc(-c2ccc3c(c2)C(=CNCc2ccc(O)c(O)c2)C(=O)NC3=O)c1 [Example 765, 4-[(3,4-Dihydroxy-benzylamino)-methylene]-6-(3-methoxy-phenyl)-4H-isoquinoline-1,3-dione]	0.27	21.1	11.5	15.8	18.3	33.4	14.4
